Reference: PubChem BioAssay (NCI)
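Assay format: 96-well plates, 48-hour exposure. TGI denotes the concentration required for complete inhibition of growth.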

How the values were obtained:
Assay in all cases: NCI tumour cell line growth inhibition, 48 h
786-0 renal = test system: 786-0 renal
A498 renal = test system: A498 renal
A549 NSCLC = test system: A549 NSCLC
ACHN renal = test system: ACHN renal
BT-549 breast = test system: BT-549 breast
CAKI-1 renal = test system: CAKI-1 renal
CCRF-CEM leukemia = test system: CCRF-CEM leukemia
COLO 205 colon = test system: COLO 205 colon
DU-145 prostate = test system: DU-145 prostate
EKVX NSCLC = test system: EKVX NSCLC
HCT-116 colon = test system: HCT-116 colon
HCT-15 colon = test system: HCT-15 colon
HL-60(TB) leukemia = test system: HL-60(TB) leukemia
HOP-62 NSCLC = test system: HOP-62 NSCLC
HOP-92 NSCLC = test system: HOP-92 NSCLC
HS 578T breast = test system: HS 578T breast
HT29 colon = test system: HT29 colon
IGROV1 ovarian = test system: IGROV1 ovarian
K-562 leukemia = test system: K-562 leukemia
KM12 colon = test system: KM12 colon
LOX IMVI melanoma = test system: LOX IMVI melanoma
M14 melanoma = test system: M14 melanoma
MALME-3M melanoma = test system: MALME-3M melanoma
MCF7 breast = test system: MCF7 breast
MDA-MB-231 breast = test system: MDA-MB-231 breast
MDA-MB-435 = test system: MDA-MB-435
MDA-N = test system: MDA-N
MOLT-4 leukemia = test system: MOLT-4 leukemia
NCI-H226 lung = test system: NCI-H226 lung
NCI-H23 lung = test system: NCI-H23 lung
NCI-H460 lung = test system: NCI-H460 lung
NCI-H522 lung = test system: NCI-H522 lung
NCI/ADR-RES ovarian = test system: NCI/ADR-RES ovarian
OVCAR-3 ovarian = test system: OVCAR-3 ovarian
OVCAR-4 ovarian = test system: OVCAR-4 ovarian
OVCAR-5 ovarian = test system: OVCAR-5 ovarian
OVCAR-8 ovarian = test system: OVCAR-8 ovarian
PC-3 prostate = test system: PC-3 prostate
RPMI-8226 leukemia = test system: RPMI-8226 leukemia
RXF 393 renal = test system: RXF 393 renal
SF-268 CNS = test system: SF-268 CNS
SF-295 CNS = test system: SF-295 CNS
SF-539 CNS = test system: SF-539 CNS
SK-MEL-2 melanoma = test system: SK-MEL-2 melanoma
SK-MEL-28 melanoma = test system: SK-MEL-28 melanoma
SK-MEL-5 melanoma = test system: SK-MEL-5 melanoma
SK-OV-3 ovarian = test system: SK-OV-3 ovarian
SN12C renal = test system: SN12C renal
SNB-19 CNS = test system: SNB-19 CNS
SNB-75 CNS = test system: SNB-75 CNS
SR leukemia = test system: SR leukemia
SW-620 colon = test system: SW-620 colon
T-47D breast = test system: T-47D breast
TK-10 renal = test system: TK-10 renal
U251 CNS = test system: U251 CNS
UACC-257 melanoma = test system: UACC-257 melanoma
UACC-62 melanoma = test system: UACC-62 melanoma
UO-31 renal = test system: UO-31 renal
HCC-2998 colon = test system: HCC-2998 colon

CC1=NN(c2ccc(S(=O)(=O)O)cc2)C(=O)/C1=C/c1ccc(Cl)cc1
TGI (786-0 renal): > 100 µM | TGI (A498 renal): > 100 µM | TGI (A549 NSCLC): > 100 µM | TGI (ACHN renal): > 100 µM | TGI (BT-549 breast): > 100 µM | TGI (CAKI-1 renal): > 100 µM | TGI (CCRF-CEM leukemia): > 100 µM | TGI (COLO 205 colon): > 100 µM | TGI (DU-145 prostate): > 100 µM | TGI (EKVX NSCLC): > 100 µM | TGI (HCT-116 colon): > 100 µM | TGI (HCT-15 colon): > 100 µM | TGI (HL-60(TB) leukemia): > 100 µM | TGI (HOP-62 NSCLC): > 100 µM | TGI (HOP-92 NSCLC): > 100 µM | TGI (HS 578T breast): > 100 µM | TGI (HT29 colon): > 100 µM | TGI (IGROV1 ovarian): > 100 µM | TGI (K-562 leukemia): > 100 µM | TGI (KM12 colon): > 100 µM | TGI (LOX IMVI melanoma): > 100 µM | TGI (M14 melanoma): > 100 µM | TGI (MALME-3M melanoma): > 100 µM | TGI (MCF7 breast): > 100 µM | TGI (MDA-MB-231 breast): > 100 µM | TGI (MDA-MB-435): > 100 µM | TGI (MDA-N): > 100 µM | TGI (MOLT-4 leukemia): > 100 µM | TGI (NCI-H226 lung): > 100 µM | TGI (NCI-H23 lung): > 100 µM | TGI (NCI-H460 lung): > 100 µM | TGI (NCI-H522 lung): > 100 µM | TGI (NCI/ADR-RES ovarian): > 100 µM | TGI (OVCAR-3 ovarian): > 100 µM | TGI (OVCAR-4 ovarian): > 100 µM | TGI (OVCAR-5 ovarian): > 100 µM | TGI (OVCAR-8 ovarian): > 100 µM | TGI (PC-3 prostate): > 100 µM | TGI (RPMI-8226 leukemia): > 100 µM | TGI (RXF 393 renal): > 100 µM | TGI (SF-268 CNS): > 100 µM | TGI (SF-295 CNS): > 100 µM | TGI (SF-539 CNS): > 100 µM | TGI (SK-MEL-2 melanoma): > 100 µM | TGI (SK-MEL-28 melanoma): > 100 µM | TGI (SK-MEL-5 melanoma): > 100 µM | TGI (SK-OV-3 ovarian): > 100 µM | TGI (SN12C renal): > 100 µM | TGI (SNB-19 CNS): > 100 µM | TGI (SNB-75 CNS): > 100 µM | TGI (SR leukemia): > 100 µM | TGI (SW-620 colon): > 100 µM | TGI (T-47D breast): > 100 µM | TGI (TK-10 renal): > 100 µM | TGI (U251 CNS): > 100 µM | TGI (UACC-257 melanoma): > 100 µM | TGI (UACC-62 melanoma): > 100 µM | TGI (UO-31 renal): > 100 µM

COc1ccc(OC)c(C2CCc3c(cnc4nc(N)nc(N)c34)C2)c1 (stereo not drawn)
TGI (786-0 renal): 18.3 µM | TGI (A498 renal): 27.4 µM | TGI (A549 NSCLC): 15 µM | TGI (ACHN renal): 17.2 µM | TGI (BT-549 breast): 40.7 µM | TGI (CAKI-1 renal): 29.1 µM | TGI (COLO 205 colon): 47.3 µM | TGI (DU-145 prostate): 28.4 µM | TGI (EKVX NSCLC): 24.2 µM | TGI (HCC-2998 colon): 44.6 µM | TGI (HCT-116 colon): 14.2 µM | TGI (HCT-15 colon): 28.4 µM | TGI (HL-60(TB) leukemia): 25.9 µM | TGI (HOP-62 NSCLC): 26.8 µM | TGI (HOP-92 NSCLC): 26.3 µM | TGI (HS 578T breast): 53 µM | TGI (HT29 colon): 16.2 µM | TGI (IGROV1 ovarian): 17.5 µM | TGI (K-562 leukemia): 16.1 µM | TGI (KM12 colon): 26.4 µM | TGI (LOX IMVI melanoma): 15.5 µM | TGI (M14 melanoma): 17.3 µM | TGI (MALME-3M melanoma): 20.9 µM | TGI (MCF7 breast): 24.3 µM | TGI (MDA-MB-231 breast): 29.2 µM | TGI (MDA-MB-435): 17.1 µM | TGI (MDA-N): 17.2 µM | TGI (MOLT-4 leukemia): 22 µM | TGI (NCI-H226 lung): 54.8 µM | TGI (NCI-H460 lung): 21.6 µM | TGI (NCI-H522 lung): 21.7 µM | TGI (NCI/ADR-RES ovarian): > 100 µM | TGI (OVCAR-3 ovarian): 31.3 µM | TGI (OVCAR-4 ovarian): 23.5 µM | TGI (OVCAR-5 ovarian): 22.2 µM | TGI (OVCAR-8 ovarian): 21.6 µM | TGI (PC-3 prostate): 27.5 µM | TGI (RXF 393 renal): 32.1 µM | TGI (SF-268 CNS): 18.9 µM | TGI (SF-295 CNS): 23.3 µM | TGI (SF-539 CNS): 89.1 µM | TGI (SK-MEL-2 melanoma): 31.8 µM | TGI (SK-MEL-28 melanoma): 29.4 µM | TGI (SK-MEL-5 melanoma): 33.4 µM | TGI (SK-OV-3 ovarian): 31.2 µM | TGI (SN12C renal): 22 µM | TGI (SNB-19 CNS): 21.5 µM | TGI (SR leukemia): 20.4 µM | TGI (SW-620 colon): 37.2 µM | TGI (T-47D breast): 39.8 µM | TGI (TK-10 renal): 28.7 µM | TGI (U251 CNS): 18.7 µM | TGI (UACC-257 melanoma): 23.4 µM | TGI (UACC-62 melanoma): 12.3 µM

Clc1ccc(C(Cc2cccc(Cl)c2)c2c(Cl)nc(N3CCNCC3)nc2Cl)cc1 (stereo not drawn)
TGI (786-0 renal): 27.5 µM | TGI (A498 renal): 28.5 µM | TGI (A549 NSCLC): 29.5 µM | TGI (ACHN renal): 28.8 µM | TGI (BT-549 breast): 39.1 µM | TGI (CAKI-1 renal): 24.4 µM | TGI (CCRF-CEM leukemia): 31.9 µM | TGI (COLO 205 colon): 11.9 µM | TGI (DU-145 prostate): 33.9 µM | TGI (EKVX NSCLC): > 100 µM | TGI (HCC-2998 colon): 28.4 µM | TGI (HCT-116 colon): 25.9 µM | TGI (HCT-15 colon): 26.4 µM | TGI (HL-60(TB) leukemia): 23.1 µM | TGI (HOP-62 NSCLC): 28.9 µM | TGI (HOP-92 NSCLC): 27.1 µM | TGI (HS 578T breast): 38.8 µM | TGI (HT29 colon): > 100 µM | TGI (IGROV1 ovarian): > 100 µM | TGI (K-562 leukemia): 26.5 µM | TGI (KM12 colon): 26.8 µM | TGI (LOX IMVI melanoma): 25.5 µM | TGI (M14 melanoma): 26.2 µM | TGI (MALME-3M melanoma): 26.4 µM | TGI (MCF7 breast): 24.6 µM | TGI (MDA-MB-231 breast): 26.4 µM | TGI (MDA-MB-435): 30.3 µM | TGI (MDA-N): 29.6 µM | TGI (MOLT-4 leukemia): 24.6 µM | TGI (NCI-H226 lung): > 100 µM | TGI (NCI-H23 lung): 34.1 µM | TGI (NCI-H460 lung): 30.9 µM | TGI (NCI-H522 lung): 28 µM | TGI (NCI/ADR-RES ovarian): 36.2 µM | TGI (OVCAR-3 ovarian): 29.2 µM | TGI (OVCAR-4 ovarian): 31.3 µM | TGI (OVCAR-5 ovarian): 25 µM | TGI (OVCAR-8 ovarian): 38.4 µM | TGI (PC-3 prostate): 30.6 µM | TGI (RPMI-8226 leukemia): 52.2 µM | TGI (SF-295 CNS): 31 µM | TGI (SF-539 CNS): 35.2 µM | TGI (SK-MEL-2 melanoma): 40.9 µM | TGI (SK-MEL-28 melanoma): 33.6 µM | TGI (SK-MEL-5 melanoma): 29.7 µM | TGI (SK-OV-3 ovarian): 27.1 µM | TGI (SNB-19 CNS): 30.5 µM | TGI (SNB-75 CNS): 26.7 µM | TGI (SR leukemia): 17.5 µM | TGI (SW-620 colon): 30.1 µM | TGI (T-47D breast): 31 µM | TGI (TK-10 renal): 30.4 µM | TGI (U251 CNS): 30 µM | TGI (UACC-257 melanoma): 37.6 µM | TGI (UACC-62 melanoma): 36.7 µM | TGI (UO-31 renal): 25.8 µM
